For assay [1], the system named is Pseudomonas aeruginosa (deposit number: NBRC106052 strain). Put plainly: Minimum inhibitory concentration (MIC) test. The format is cell-based. How it is done: A compound (hereinafter, sometimes referred to as a substance to be evaluated) that is a component of a biofilm treatment agent is diluted stepwise with a bouillon medium for testing susceptibility to prepare a total amount of 10 mL of dilution series (with the proviso of being 1.1 times the target concentration). 20 μL of a bacterial suspension which has been prepared such that there is 10^8 cfu/mL of Pseudomonas aeruginosa (deposit number: NBRC106052 strain) which is a representative strain of biofilm-forming bacteria as a test bacterial strain is added thereto and subjected to shaking culture (2000 rpm) with a 96-well microplate mixer at 37° C. for 24 hours. The lowest concentration in the dilution series which is not visually turbid is regarded as the MIC.
Pseudomonad (gram-negative bacterium) known as a model bacterium forming a biofilm was used as a test bacterium to MIC's of compounds (hereinafter, substances to be evaluated) that are components of a biofilm treatment agent.
(1) Test Bacterium Pseudomonas aeruginosa (Deposit Number: NBRC106052 Strain)
Each substance to be evaluated was diluted stepwise with a bouillon medium for testing susceptibility to prepare a total amount of 10 mL of dilution series (with the proviso of being 1.1 times the target concentration). 20 μL of a bacterial suspension which had been prepared such that there was 10^8 cfu/mL of a test bacterial strain was added thereto and subjected to shaking culture (2000 rpm) with a 96-well microplate mixer at 37° C. for 24 hours. The lowest concentration in the dilution series which was not visually turbid was regarded as the MIC.

Assay [2] has as its system Pseudomonas aeruginosa (deposit number: NBRC106052 strain) biofilm. Put plainly: Evaluation of biofilm-removing effect (crystal violet staining of pre-formed biofilm). The format is cell-based. The following applies: Table 4: anthranilic acid analog and/or biosurfactant or synthetic surfactant, each at Table 2 concentration, pH 7.0, 3.5 hours contact. The text has this:
In the present invention, the biofilm-removing effect is an action of removing biofilms formed by bacteria. Examples of methods for evaluating an effect of removing substances to be evaluated include a method for comparing the amount of biofilm formed after bringing the substance to be evaluated into contact with a biofilm formed through culturing bacteria for a certain period of time with the amount of biofilm (control) formed after the elapse of a certain period of time without the biofilm being brought into contact with the substance to be evaluated. In this case, when the amount of biofilm formed is smaller than that of the control, it can be determined that the substance to be evaluated has a biofilm-removing effect.
(i) A triptic soy broth (TBS, Bacto: manufactured by Difco Laboratories) medium having a final concentration of glucose of 1% is used for Pseudomonas aeruginosa (deposit number: NBRC106052 strain) which is a representative strain of biofilm-forming bacteria to prepare a preculture solution under the condition of 120 rpm.
(ii) The preculture solution of which the turbidity (OD) is adjusted to 0.1 is diluted with a TSB medium so that the final concentration is 0.000005% (v/v), and 2 mL of the diluent is dispensed into a 12-well plate. Here, the following OD (turbidity) is a value which is measured with a spectrophotometer (iMark Microplate Reader: manufactured by Bio-Rad Laboratories, Inc.) at a wavelength of 630 nm in which distilled water is used as a blank.
(iii) Culture is performed under the conditions of 37° C. and 130 rpm for 17 hours to form a biofilm.
(iv) The culture solution in each well is removed and each well is rinsed twice with distilled water.
(v) A substance to be evaluated is added to a medium at an appropriate concentration less than the MIC of the target substance, and the pH of the medium is adjusted to 7.0 with hydrochloric acid or sodium hydroxide. 2 mL of a sterile medium (pH=7.0) is added to each well to be used as a negative control.
(vi) Each well is shaken at the same temperature as that of the preculture for 3.5 hours at 130 rpm, the biofilm is brought into contact with the medium containing the substance to be evaluated, and then, the medium in each well is removed, and each well is rinsed twice with distilled water.
(vii) 2 mL of an aqueous crystal violet solution (0.4 w/v %, 20 w/v % methanol) is added to the biofilm adhering in each well, allowed to stand for 2 minutes, and allowed to stain, and then, the stained biofilm is rinsed three times with distilled water, and the aqueous crystal violet solution which has not been bound to the biofilm is removed.
(viii) 2 mL of ethanol is added to each well and allowed to stand for 1 hour to elute crystal violet from the stained biofilm, and the absorbance is measured. Here, the following absorbance is a value which is measured with a spectrophotometer (iMark Microplate Reader: manufactured by Bio-Rad Laboratories, Inc.) at a wavelength of 595 nm in which distilled water is used as a blank.
(ix) Regarding the absorbance of the negative control and each substance to be evaluated, absorbances measured for 4 wells are taken as an average value, and the removal rate of each biofilm is calculated from the following calculation equation.
Biofilm removal rate (%)={1-(absorbance of substance to be evaluated/absorbance of negative control)}×100
The biofilm-removing effect and the biofilm formation-inhibiting effect of each of the substances to be evaluated shown in Table 1 were confirmed according to the evaluation methods specified in the present invention using each biofilm treatment agent containing each substance to be evaluated as a biofilm treatment agent component. In addition, evaluation results of the biofilm-removing effect and the biofilm formation-inhibiting effect of each aromatic monohydric alcohol alone are shown in […]

The mark [3] stands for this setting: Pseudomonas aeruginosa, NBRC106052, bouillon medium, 37° C., 24 hours, lowest concentration not visually turbid, read-out: MIC.
The mark [4] stands for this setting: Pseudomonas aeruginosa, NBRC106052, 24 h.
[5] abbreviates: bouillon medium, 37° C., 24 hours, lowest concentration not visually turbid.

Converted amounts (≈) assume the structure as drawn. Like-named read-outs stand apart in the source and are kept apart here. Residues, ends and D or L forms follow the SMILES beside them.

One may read the MIC as the least concentration at which growth counts as inhibited. As for `OCc1ccccc1` [Example 1, 1-Phenylmethanol], the MIC in assay [1] (setting [3]) was determined as 2500 mg/L (≈ 23.1 mM).

Regarding `COC(=O)c1ccccc1N` [Comparative Example 6, Methyl anthranilate], in assay [2], the “Removal results (removal rate %)” value amounted to 33%. Moreover, 1250 mg/L (≈ 8.27 mM) was the least that counted as inhibitory in assay [1] (setting [4]) (MIC).

Take `NC(=O)c1ccccc1N` [Comparative Example 5, Anthranylamide]: the “Removal results (removal rate %)” value in assay [2] is recorded as 25%. Also, the MIC in assay [1] (setting [5]) was 5,000 ppm.

Take Sophorolipid [Comparative Example 10]: the “Removal results (removal rate %)” value in assay [2] was 36%. For the same compound, the MIC in assay [1] (setting [5]) is reported as >10,000 ppm.

Turning to `CC(C)CCCCCCCCC[C@@H]1CC(=O)N[C@@H](CCC(=O)O)C(=O)N[C@@H](CC(C)C)C(=O)N[C@H](CC(C)C)C(=O)N[C@@H](C(C)C)C(=O)N[C@@H](CC(=O)O)C(=O)N[C@H](CC(C)C)C(=O)N[C@@H](CC(C)C)C(=O)O1` [Comparative Example 9, Surfactin] (HELM PEPTIDE1{E.L.[dL].V.D.[dL].L}|CHEM1{[CC(C)CCCCCCCCC[C@H](CC(=O)[*:1])O[*:2]]}$PEPTIDE1,CHEM1,1:R1-1:R1|PEPTIDE1,CHEM1,7:R2-1:R2$$$V2.0), the “Removal results (removal rate %)” value in assay [2] is reported as 24%. For the same compound, in assay [1] (setting [3]), the MIC came to 10000 mg/L (≈ 9.65 mM).

In the case of `CCCCCO` [Comparative Example 1, 1-Pentanol], the MIC in assay [1] (setting [3]) is > 5000 mg/L.

As for `OCC(O)COc1ccccc1` (stereo not drawn) [compound 3, 3-Phenoxy-1,2-propanediol], the MIC in assay [1] (setting [4]) was > 5000 mg/L.

Consider `Nc1ccccc1C(=O)O` [Comparative Example 7, Anthranilic acid], for which the “Removal results (removal rate %)” value in assay [2] stood at 20%. In assay [1] (setting [4]), this compound had an MIC of 10000 mg/L (≈ 72.9 mM).

Regarding Rhamnolipid [Comparative Example 8], in assay [2], the “Removal results (removal rate %)” value was 24%. Further, the MIC in assay [1] (setting [5]) is >10,000 ppm.

As for `CCCCCCCCCCCCOS(=O)(=O)[O-].[Na+]` [SDS, sodium dodecyl sulfate], the MIC in assay [1] (setting [3]) was 2000 mg/L.

`OCCCOc1ccccc1` [Example 5, 3-Phenoxy-1-propanol]: the MIC in assay [1] (setting [4]) was 2500 mg/L (≈ 16.4 mM).

For `N#CC(Br)(Br)C(N)=O` [compound 4, 2,2-dibromo-3-nitrilopropionamide], the MIC in assay [1] (setting [3]) is 19.5 mg/L (≈ 0.0806 mM).

Consider `OCC=Cc1ccccc1` [Example 6, Cinnamyl alcohol], for which the MIC in assay [1] (setting [3]) was determined as 2500 mg/L (≈ 18.6 mM).

`OCCc1ccccc1` [Example 3, 2-Phenylethanol]: the MIC in assay [1] (setting [3]) came to 5000 mg/L (≈ 40.9 mM).

`OCCOc1ccccc1` [Example 4, 2-Phenoxyethanol] yielded an MIC in assay [1] (setting [4]) of 2500 mg/L (≈ 18.1 mM).

In the case of polyoxyethylene lauryl ether [POELE], in assay [1] (setting [5]), the minimum inhibitory concentration (MIC) is reported as >2,000 ppm.

For `CC(O)c1ccccc1` (stereo not drawn) [Example 2, 1-Phenylethanol], in assay [1] (setting [4]), inhibition of growth (MIC) required 5000 mg/L (≈ 40.9 mM).

For the compound `OCC(CO)c1ccccc1` [compound 2, 2-Phenyl-1,3-propanediol], the MIC in assay [1] (setting [3]) is > 5000 mg/L.
